In the supplement of paper PMC10307832:

Experiments:
Test in all cases: relative viability (nuclei count vs DMSO), 5 days (fraction); higher = more cells survive
HCC-827 = system: HCC-827
Method in brief: (§1)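 Values are medians from duplicate plates. Each reflects relative viability, defined as the nuclei count of treated wells over that of vehicle wells. Lung cancer cell lines in 1536-well plates were pin-tool dosed one day after seeding with one drug alone or with a fixed anchor-drug dose plus five library-drug doses (not always all listed) in √10 steps, then fixed, stained and imaged at 4× after 5 days.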

NCI-H2342 = system: NCI-H2342
Method in brief: as §1

EKVX = system: EKVX
Method in brief: as §1

NCI-H1734 = system: NCI-H1734
Method in brief: as §1

NCI-H1975 = system: NCI-H1975
Method in brief: as §1

LCLC-97TM1 = system: LCLC-97TM1
Method in brief: as §1

NCI-H1355 = system: NCI-H1355
Method in brief: as §1

PC-14 = system: PC-14
Method in brief: as §1

NCI-H1650 = system: NCI-H1650
Method in brief: as §1

NCI-H1563 = system: NCI-H1563
Method in brief: as §1

PC-3 [JPC-3] = system: PC-3 [JPC-3]
Method in brief: as §1

NCI-H322M = system: NCI-H322M
Method in brief: as §1

CAL-12T = system: CAL-12T
Method in brief: as §1

H3255 = system: H3255
Method in brief: as §1

NCI-H1755 = system: NCI-H1755
Method in brief: as §1

NCI-H661 = system: NCI-H661
Method in brief: as §1

LK-2 = system: LK-2
Method in brief: as §1

NCI-H2405 = system: NCI-H2405
Method in brief: as §1

NCI-H520 = system: NCI-H520
Method in brief: as §1

HCC-15 = system: HCC-15
Method in brief: as §1

RERF-LC-KJ = system: RERF-LC-KJ
Method in brief: as §1

NCI-H2228 = system: NCI-H2228
Method in brief: as §1

Structure (SMILES): O=c1cc(-c2cccc3c2Sc2ccccc2S3)oc(N2CCOCC2)c1 + Nc1nc2[nH]cc(CCc3ccc(C(=O)N[C@@H](CCC(=O)O)C(=O)O)cc3)c2c(=O)[nH]1 [Pemetrexed] (partner 0.2 µM)
- relative viability (HCC-827; first compound 0.08 µM): 0.231
- relative viability (HCC-827; first compound 0.253 µM): 0.272
- relative viability (HCC-827; first compound 0.8 µM): 0.244
- relative viability (HCC-827; first compound 2.53 µM): 0.264
- relative viability (HCC-827; first compound 8 µM): 0.228
- relative viability (NCI-H2342; first compound 0.08 µM): 0.703
- relative viability (NCI-H2342; first compound 0.253 µM): 0.817
- relative viability (NCI-H2342; first compound 0.8 µM): 0.718
- relative viability (NCI-H2342; first compound 2.53 µM): 0.725
- relative viability (NCI-H2342; first compound 8 µM): 0.848
- relative viability (EKVX; first compound 0.08 µM): 0.428
- relative viability (EKVX; first compound 0.253 µM): 0.376
- relative viability (EKVX; first compound 0.8 µM): 0.381
- relative viability (EKVX; first compound 2.53 µM): 0.482
- relative viability (EKVX; first compound 8 µM): 0.436
- relative viability (NCI-H1734; first compound 0.08 µM): 0.394
- relative viability (NCI-H1734; first compound 0.253 µM): 0.45
- relative viability (NCI-H1734; first compound 0.8 µM): 0.487
- relative viability (NCI-H1734; first compound 8 µM): 0.432
- relative viability (NCI-H1975; first compound 0.08 µM): 0.318
- relative viability (NCI-H1975; first compound 0.253 µM): 0.29
- relative viability (NCI-H1975; first compound 0.8 µM): 0.313
- relative viability (NCI-H1975; first compound 2.53 µM): 0.287
- relative viability (NCI-H1975; first compound 8 µM): 0.288
- relative viability (LCLC-97TM1; first compound 0.08 µM): 0.175
- relative viability (LCLC-97TM1; first compound 0.253 µM): 0.169
- relative viability (LCLC-97TM1; first compound 0.8 µM): 0.18
- relative viability (LCLC-97TM1; first compound 2.53 µM): 0.177
- relative viability (LCLC-97TM1; first compound 8 µM): 0.175
- relative viability (NCI-H1355; first compound 0.08 µM): 1.11
- relative viability (NCI-H1355; first compound 0.253 µM): 1.15
- relative viability (NCI-H1355; first compound 0.8 µM): 0.898
- relative viability (NCI-H1355; first compound 2.53 µM): 0.995
- relative viability (NCI-H1355; first compound 8 µM): 1.06
- relative viability (PC-14; first compound 0.08 µM): 0.138
- relative viability (PC-14; first compound 0.253 µM): 0.135
- relative viability (PC-14; first compound 0.8 µM): 0.132
- relative viability (PC-14; first compound 2.53 µM): 0.119
- relative viability (PC-14; first compound 8 µM): 0.12
- relative viability (NCI-H1650; first compound 0.08 µM): 0.362
- relative viability (NCI-H1650; first compound 0.253 µM): 0.366
- relative viability (NCI-H1650; first compound 0.8 µM): 0.407
- relative viability (NCI-H1650; first compound 2.53 µM): 0.415
- relative viability (NCI-H1650; first compound 8 µM): 0.36
- relative viability (NCI-H1563; first compound 0.08 µM): 0.695
- relative viability (NCI-H1563; first compound 0.253 µM): 0.741
- relative viability (NCI-H1563; first compound 0.8 µM): 0.744
- relative viability (NCI-H1563; first compound 2.53 µM): 0.684
- relative viability (NCI-H1563; first compound 8 µM): 0.787
- relative viability (PC-3 [JPC-3]; first compound 0.08 µM): 0.721
- relative viability (PC-3 [JPC-3]; first compound 0.253 µM): 1.11
- relative viability (PC-3 [JPC-3]; first compound 0.8 µM): 1.3
- relative viability (PC-3 [JPC-3]; first compound 2.53 µM): 0.996
- relative viability (PC-3 [JPC-3]; first compound 8 µM): 1.08
- relative viability (NCI-H322M; first compound 0.08 µM): 0.57
- relative viability (NCI-H322M; first compound 0.253 µM): 0.61
- relative viability (NCI-H322M; first compound 0.8 µM): 0.598
- relative viability (NCI-H322M; first compound 2.53 µM): 0.634
- relative viability (NCI-H322M; first compound 8 µM): 0.602
- relative viability (CAL-12T; first compound 0.08 µM): 1.25
- relative viability (CAL-12T; first compound 0.253 µM): 1.39
- relative viability (CAL-12T; first compound 0.8 µM): 1.18
- relative viability (CAL-12T; first compound 2.53 µM): 1.04
- relative viability (CAL-12T; first compound 8 µM): 1.03
- relative viability (H3255; first compound 0.08 µM): 0.474
- relative viability (H3255; first compound 0.253 µM): 0.547
- relative viability (H3255; first compound 0.8 µM): 0.533
- relative viability (H3255; first compound 2.53 µM): 0.552
- relative viability (H3255; first compound 8 µM): 0.56
- relative viability (NCI-H1755; first compound 0.08 µM): 0.572
- relative viability (NCI-H1755; first compound 0.253 µM): 0.398
- relative viability (NCI-H1755; first compound 0.8 µM): 0.389
- relative viability (NCI-H1755; first compound 2.53 µM): 0.574
- relative viability (NCI-H1755; first compound 8 µM): 0.366
- relative viability (NCI-H661; first compound 0.08 µM): 0.9
- relative viability (NCI-H661; first compound 0.253 µM): 0.942
- relative viability (NCI-H661; first compound 0.8 µM): 0.962
- relative viability (NCI-H661; first compound 2.53 µM): 0.874
- relative viability (NCI-H661; first compound 8 µM): 0.899
- relative viability (LK-2; first compound 0.08 µM): 0.312
- relative viability (LK-2; first compound 0.253 µM): 0.297
- relative viability (LK-2; first compound 0.8 µM): 0.224
- relative viability (LK-2; first compound 2.53 µM): 0.256
- relative viability (LK-2; first compound 8 µM): 0.284
- relative viability (NCI-H2405; first compound 0.08 µM): 0.859
- relative viability (NCI-H2405; first compound 0.253 µM): 1.1
- relative viability (NCI-H2405; first compound 0.8 µM): 1.06
- relative viability (NCI-H2405; first compound 2.53 µM): 0.83
- relative viability (NCI-H2405; first compound 8 µM): 1.02
- relative viability (NCI-H520; first compound 0.08 µM): 0.634
- relative viability (NCI-H520; first compound 0.253 µM): 0.835
- relative viability (NCI-H520; first compound 0.8 µM): 0.739
- relative viability (NCI-H520; first compound 2.53 µM): 0.717
- relative viability (NCI-H520; first compound 8 µM): 0.69
- relative viability (HCC-15; first compound 0.08 µM): 0.23
- relative viability (HCC-15; first compound 0.253 µM): 0.253
- relative viability (HCC-15; first compound 0.8 µM): 0.207
- relative viability (HCC-15; first compound 2.53 µM): 0.204
- relative viability (HCC-15; first compound 8 µM): 0.228
- relative viability (RERF-LC-KJ; first compound 0.08 µM): 0.443
- relative viability (RERF-LC-KJ; first compound 0.253 µM): 0.469
- relative viability (RERF-LC-KJ; first compound 0.8 µM): 0.504
- relative viability (RERF-LC-KJ; first compound 2.53 µM): 0.474
- relative viability (RERF-LC-KJ; first compound 8 µM): 0.469
- relative viability (NCI-H2228; first compound 0.08 µM): 0.351
- relative viability (NCI-H2228; first compound 0.253 µM): 0.359
- relative viability (NCI-H2228; first compound 0.8 µM): 0.336
- relative viability (NCI-H2228; first compound 2.53 µM): 0.355
- relative viability (NCI-H2228; first compound 8 µM): 0.473
